Common to all, as to type: physicochemical
The nature of series [1]: Solubility in toluene. On the procedure: As used herein, a compound can be considered soluble in a solvent when at least 0.1 mg of the compound can be dissolved in 1 mL of the solvent. Examples of common organic solvents include petroleum ethers; acetonitrile; aromatic hydrocarbons such as benzene, toluene, xylene, and mesitylene; ketones such as acetone, and methyl ethyl ketone; ethers such as tetrahydrofuran, dioxane, bis(2-methoxyethyl)ether, diethyl ether, di-isopropyl ether, and t-butyl methyl ether; alcohols such as methanol, ethanol, butanol, and isopropyl alcohol; aliphatic hydrocarbons such as hexanes; esters such as methyl acetate, ethyl acetate, methyl formate, ethyl formate, isopropyl acetate, and butyl acetate; amides such as dimethylformamide and dimethylacetamide; sulfoxides such as dimethylsulfoxide; halogenated aliphatic and aromatic hydrocarbons such as dichloromethane, chloroform, ethylene chloride, chlorobenzene, dichlorobenzene, and trichlorobenzene; and cyclic solvents such as cyclopentanone, cyclohexanone, and 2-methypyrrolidone. In various embodiments, the present compounds can have good solubility in solvents that are aromatic hydrocarbons such as benzene, toluene, xylene, and mesitylene.
Table 2 below compares the solubilities of several compounds according to the present teachings with their unsubstituted counterparts in toluene.

Series [2] in a line: Electrochemistry (redox potentials). The note with it: for E^−1/2: first reduction potential. On the procedure: Electrochemical measurements were performed using a CH Instruments Model 622 electrochemical workstation. Measurements for compounds 4, 6, 8, and 10 were performed in dichloromethane containing 0.1 M tetrabutylammonium hexafluorophosphate (TBAPF6) electrolyte. Measurements for 2 were performed in benzonitrile with the same electrolyte. A 1.0 mm diameter platinum disk electrode, platinum wire electrode, and […] reference electrode were employed. The ferrocene/ferrocenium redox couple (Fc/Fc^+, 0.46 V vs. SCE) (see Connelly et al., Chem. Rev., 96: 877-910 (1996)) was used as an internal standard. TBAPF6 was recrystallized twice from ethyl acetate prior to use.
Alkylation (e.g., substitution of the phenethyl groups) ortho to the imide nitrogen atoms appears to render the present compounds somewhat more difficult to reduce, but easier to oxidize (Table 3). The reduction potentials of the disubstituted compounds (2, 4, and 6) are approximately 130 mV more negative than those of their parent compounds. Correspondingly, the oxidation potential of the disubstituted 6 is 40 mV less positive than that of […]. Tetrasubstituted 8 and 10 have reduction potentials that are more negative by ˜200 mV than their unsubstituted analogs. These shifts in redox potentials reasonably arise from the electron-donating nature of the alkylating (e.g., phenethyl) groups. The oxidation and reduction potentials of all alkylated molecules shift in the same direction by nearly the same amount, such that the corresponding HOMO-LUMO energy gap remains the same, as is reflected in their electronic absorption and emission spectra described below.

Series [3] is described as follows: Steady-state electronic absorption and fluorescence spectroscopy. The following applies: for λmax: UV-vis absorption in toluene; for E(S1): determined from the average energy of the absorption and emission maxima; for ε: extinction coefficient at λmax; for ε / λem: toluene; for λem: fluorescence emission maximum; for φF: fluorescence quantum yield. On the procedure: Steady-state electronic absorption spectra were recorded on a Shimadzu 1601 UV/Vis spectrometer with a 2 mm quartz cuvette. Fluorescence measurements were performed using a PTI Quanta-Master 1 single photon counting spectrofluorimeter in a right angle configuration with a 1 cm quartz cuvette.
The intensity of the S0→>S1 transition increases with the size of the aromatic core, while the energy decreases. The fluorescence spectrum of each chromophore is shown in FIG. 4b and summarized in Table 4 along with that of compounds 1, 3, 5, 7, and 9. A similar trend with the emission maxima moving to longer wavelengths as the size of the aromatic core increases was observed. The electronic absorption and fluorescence properties of all the alkylated chromophores are very similar to those of the parent compounds. No observable trend is apparent for the slight shifts in λmax; however, with the exception of 2, all alkylated compounds have slightly lower extinction coefficients than their parent compounds. The fluorescence emission maxima of the alkylated compounds (Table 4) are similar to those of the parent compounds as reported in the literature. See Hydlovic et al., Phtochem. Photobiol. A., 112: 197-203 (1998); Licchelli et al., Chem. Eur. J., 8: 5161-5169 (2002); Weil et al., Chem. Eur. J., 8: 4742-4750 (2002); and Sadrai et al., J. Phys. Chem., 96: 7988-7996 (1992).

Series [4] is described as follows: Femtosecond transient absorption (excited-state decay). The note with it: transient absorption decay time constant, dry toluene. The text has this: Femtosecond transient absorption measurements were made using a Ti:sapphire laser system as detailed in previously reported work. See Kelley et al., J. Am. Chem. Soc., 129: 3173-3181 (2007). The wavelengths used to excite the samples were 390 nm (1-4), 416 nm (5-8), and 650 nm (9 and 10). The instrument response function for the pump-probe experiments is 160 fs. The transient spectra were obtained using 10 s of averaging at a given delay time. Glass cuvettes with a 2 mm pathlength were used and the samples were dissolved in dry toluene and irradiated with 1.0 μJ pulses at the excitation wavelength. Analysis of the kinetic data was performed at multiple wavelengths using a Levenberg-Marquardt nonlinear least-squares fit to a general sum-of-exponentials function with an added Gaussian to account for the finite instrument response.
The transient absorption spectra of naphthalene monoimide 2, specifically, the S1→>Sn absorption is characterized by a single broad band at 525 nm, which decays monoexponentially with a time constant τD=34 ps. This is similar to the time constant of other NMI compounds and is attributed to rapid intersystem crossing leading to the triplet state of 2. […] The residual 530 nm absorption band decays further with a 175 ps time constant. […]

[5] abbreviates: shift versus unsubstituted parent.

Each structure is given as a SMILES string. In brackets after ≈: the same amount, converted by molar mass. Several values for one entry are separate records, joined by “and”; a condition that tells them apart may be missing. Equal entries are not always repeated. Marks after values point to notes of the source that are not given here.

The source of these data is patent publication US20110079773A1, “Selectively Functionalized Rylene Imides and Diimides” (priority 2009, published 2011).

For the molecule `CCCCC(CC)CN1C(=O)c2c(CCc3ccccc3)cc3c4cccc5cccc(c6cc(CCc7ccccc7)c(c2c36)C1=O)c54` (stereo not drawn) [Compound 6, N-(2′-ethylhexyl)-2,5-bis(phenethyl)perylene-3,4-dicarboximide], in series [1], the “Solubility relative to unsubstituted counterpart” value was “three times more soluble”. In addition, the solubility in series [1] (organic solvent or mixture) was 6000 µg/mL (≈ 9.35 mM). Also, the “E^−1/2” value in series [2] (dichloromethane, 0.1 M TBAPF6, Fc/Fc+ (0.46 V vs. SCE) internal standard) is listed as −1.13^. The molecule also came in with an E^+1/2 in series [2] (oxidation potential, dichloromethane, 0.1 M TBAPF6, Fc/Fc+ (0.46 V vs. SCE) internal standard) of 1.37 V. The “E^2−1/2” value in series [2] (second reduction potential, dichloromethane, 0.1 M TBAPF6) is −1.43^. For the same molecule, in series [2] (setting [5]), the “Oxidation potential less positive than that of parent” value is given as 40 mV and the “Reduction potential more negative than that of parent compound” value was “approximately 130 mV”. Moreover, in series [3], the λmax came to 501 nm, the “E(S1)” value came out at 2.43 eV, the ε was found to be 27000 M⁻¹ cm⁻¹ and the λem was 521^ nm. Besides, the φF in series [3] was found to be 0.98. In series [4], this molecule displayed a τD of 4700 ± 88 ps.
Take `CCCCCCCCN1C(=O)c2c(CCc3ccccc3)ccc3ccc(CCc4ccccc4)c(c23)C1=O` [Compound 2, N-(n-octyl)-2,7-bis(phenylethyl)naphthalene-1,8-dicarboximide]: the “E^−1/2” value in series [2] (obtained in benzonitrile with 0.1 M TBAPF6) is on record as −1.53^b. Moreover, the “Reduction potential more negative than that of parent compound” value in series [2] (setting [5]) is given as “approximately 130 mV”. Further, in series [3], the λmax worked out at 353 nm, the “E(S1)” value was 3.34 eV, the ε came out at 15000 M⁻¹ cm⁻¹ and the λem is 394^ nm. This molecule showed a φF in series [3] of 0.08. In addition, in series [4], the τD was 34 ps and 34 ± 1 ps.
